From patent publication US20260354380A1, “PYRAZOLO PESTICIDAL COMPOUNDS” (BASF SE, priority 2022, published 2026)

Assays:
Assay type in all cases: in vivo
[1] = tested on: Spodoptera eridania; test: Action on Southern Armyworm (Spodoptera eridania), 2nd Instar Larvae; details: 300 ppm; 2nd instar larvae; 4 days after treatment
Procedure: Example B7: Action on Southern Armyworm (Spodoptera eridania), 2nd Instar Larvae
The active compounds were formulated by a Tecan liquid handler in 100% cyclohexanone as a 10,000 ppm solution supplied in tubes. The 10,000 ppm solution was serially diluted in 100% cyclohexanone to make interim solutions. These served as stock solutions for which final dilutions were made by the Tecan in 50% acetone: 50% water (v/v) into 10 or 20 ml glass vials. A nonionic surfactant (Kinetic®) was included in the solution at a volume of 0.01% (v/v). The vials were then inserted into an automated electrostatic sprayer equipped with an atomizing nozzle for application to plants/insects.
Lima bean plants (variety Sieva) were grown 2 plants to a pot and selected for treatment at the 1st true leaf stage. Test solutions were sprayed onto the foliage by an automated electrostatic plant sprayer equipped with an atomizing spray nozzle. The plants were dried in the sprayer fume hood and then removed from the sprayer. Each pot was placed into perforated plastic bags with a zip closure. About 10 to 11 armyworm larvae were placed into the bag and the bags zipped closed. Test plants were maintained in a growth room at about 25 °C and about 20-40% relative humidity for 4 days, avoiding direct exposure to fluorescent light (24 hour photoperiod) to prevent trapping of heat inside the bags. Mortality and reduced feeding were assessed 4 days after treatment, compared to untreated control plants.
(§1) Compounds disclosed in the document WO2021013561 were prepared according to procedures described therein and their pesticidal activities were determined by procedure analogues to the procedures as described above in examples B6 and B7.

[2] = tested on: Plutella xylostella; test: Action on Diamond Back Moth (Plutella xylostella), cabbage leaf dip, 3rd instar larvae; details: 300 ppm; 3rd instar larvae; 72 hours after treatment
Procedure: Example B6: Action on Diamond Back Moth (Plutella xylostella)
The active compound is dissolved at the desired concentration in a mixture of 1:1 (v/v) distilled water:acetone. Surfactant (Kinetic® HV) is added at a rate of 0.01% (v/v). The test solution is prepared at the day of use.
Leaves of cabbage were dipped in test solution and air-dried. Treated leaves were placed in petri dishes lined with moist filter paper and inoculated with ten 3rd instar larvae. Mortality was recorded 72 hours after treatment. Feeding damages were also recorded using a scale of 0-100%.
as §1

[3] = tested on: Anthonomus grandis; test: Action on Boll Weevil (Anthonomus grandis); details: 800 ppm; egg and larval mortality; 5 days
Procedure: Example B3: Action on Boll Weevil (Anthonomus grandis)
For evaluating control of boll weevil (Anthonomus grandis) the test unit consisted of 96-well-microtiter plates containing an insect diet and 5-10 A. grandis eggs.
The compounds were formulated using a solution containing 75% (v/v) water and 25% (v/v) DMSO. Different concentrations of formulated compounds were sprayed onto the insect diet at 5 μl, using a custom-built micro atomizer, at two replications.
After application, microtiter plates were incubated at about 25±1 °C and about 75±5% relative humidity for 5 days. Egg and larval mortality were then visually assessed.

[4] = tested on: Heliothis virescens; test: Action on Tobacco Budworm (Heliothis virescens); details: 800 ppm; egg and larval mortality; 5 days
Procedure: Example B5: Action on Tobacco Budworm (Heliothis virescens)
For evaluating control of tobacco budworm (Heliothis virescens) the test unit consisted of 96-well-microtiter plates containing an insect diet and 15-25 H. virescens eggs.
The compounds were formulated using a solution containing 75% v/v water and 25% v/v DMSO. Different concentrations of formulated compounds were sprayed onto the insect diet at 10 μl, using a custom-built micro atomizer, at two replications.
After application, microtiter plates were incubated at about 28±1 °C and about 80±5% relative humidity for 5 days. Egg and larval mortality were then visually assessed.

[5] = tested on: Aedes aegypti; test: whole plant or invertebrate; details: 800 ppm; larvae; 2 days
Procedure: Example B1: Action on Yellow Fever Mosquito (Aedes aegypti)
For evaluating control of yellow fever mosquito (Aedes aegypti) the test unit consisted of 96-well-microtiter plates containing 200 μl of tap water per well and 5-15 freshly hatched A. aegypti larvae.
The active compounds or mixtures were formulated using a solution containing 75% (v/V) water and 25% (v/v) DMSO. Different concentrations of formulated compounds or mixtures were sprayed onto the insect diet at 2.5 μl, using a custom-built micro atomizer, at two replications. For experimental mixtures in these tests identical volumes of both mixing partners at the desired concentrations respectively, were mixed together.
After application, microtiter plates were incubated at 28±1 °C, 80±5% RH for 2 days. Larval mortality was then visually assessed.

Row | Structure (SMILES) | mortality in comparison with untreated controls [1] | mortality in comparison with untreated controls [2] | mortality in comparison with untreated controls [3] | mortality in comparison with untreated controls [4] | mortality in comparison with untreated controls [5]
1 | Cc1ccc(C(=O)Nc2cn(-c3ccc(NC(=O)N=C4SCC(=O)N4c4cc(C)ccc4C(C)C)cc3)nc2C)cc1 [Example C-49] | at least 75% | at least 75% | at least 75% | at least 75% | at least 50%
2 | Cc1ccc(C(C)C)c(N2C(=O)CSC2=NC(=O)Nc2ccc(-n3cc(NC(=O)c4ccc(C5CC5(F)F)cc4)c(C)n3)cc2)c1 (racemic) [Example C-65] | at least 75% | at least 75% | at least 75% | at least 75% | at least 50%
3 | Cc1csc(C(=O)Nc2cn(-c3ccc(NC(=O)/N=C4\SCC(=O)N4c4cc(C)ccc4C(C)C)cc3)nc2C)c1 [Example C-93] | at least 75% | at least 75% | at least 75% | at least 75% | at least 50%
4 | Cc1ccc(C(F)(F)F)c(N2C(=O)CSC2=NC(=O)Nc2ccc(-n3cc(NC(=O)c4ccc(OC(F)(F)F)cc4)c(C)n3)cc2)c1 [Example C-12] | at least 75% | at least 75% | at least 75% | at least 75% | at least 50%
5 | Cc1ccc(C(C)C)c(N2C(=O)CS/C2=N\C(=O)Nc2ccc(-n3cc(NC(=O)c4ccc(C)s4)c(C)n3)cc2)c1 [Example C-94] | at least 75% | at least 75% | at least 75% | at least 75% | at least 50%
6 | Cc1ccc(C(C)C)c(N2C(=O)CS/C2=N\C(=O)Nc2ccc(-n3cc(NC(=O)c4ccc(C(C)(F)F)cc4)c(C)n3)cc2)c1 [Example C-36] | at least 75% | at least 75% | at least 75% | at least 75% | at least 50%
7 | COc1cc(-n2cc(NC(=O)c3ccc(OC(F)(F)F)cc3)c(C)n2)ccc1NC(=O)/N=C1\SCC(=O)N1c1cc(C)ccc1C(C)C [Example C-14] | at least 75% | at least 75% | at least 75% | at least 75% | at least 50%
8 | Cc1ccc(C(C)C)c(N2C(=O)CSC2=NC(=O)Nc2ccc(-n3cc(NC(=O)c4nc(Cl)cs4)c(C)n3)cc2)c1 [Example C-42] | at least 75% | at least 75% | at least 75% | at least 75% | at least 50%
9 | Cc1ccc(C(C)C)c(N2C(=O)CS/C2=N\C(=O)Nc2ccc(-n3cc(NC(=O)c4ccc(Cl)c(Cl)c4)c(C)n3)cc2)c1 [Example C-26] | at least 75% | at least 75% | at least 75% | at least 75% | at least 50%
10 | Cc1ccc(C(C)C)c(N2C(=O)CSC2=NC(=O)Nc2ccc(-n3cc(NC(=O)c4cc(Cl)cs4)c(C)n3)cc2)c1 [Example C-40] | at least 75% | at least 75% | at least 75% | at least 75% | at least 50%
11 | Cc1ccc(C(C)C)c(N2C(=O)CSC2=NC(=O)Nc2ccc(-n3cc(NC(=O)c4ccc(I)cc4)c(C)n3)cc2)c1 [Example C-71] | at least 75% | at least 75% | at least 75% | at least 75% | at least 50%
12 | Cc1ccc(C(C)C)c(N2C(=O)CS/C2=N\C(=O)Nc2ccc(-n3nc(C)c(NC(=O)c4ccc(OC(F)(F)F)c(F)c4)c3C)c(F)c2)c1 [Example C-21] | at least 75% | at least 75% | at least 75% | at least 75% | at least 50%
13 | COc1ccc(C(=O)Nc2cn(-c3ccc(NC(=O)/N=C4\SCC(=O)N4c4cc(C)ccc4C(C)C)cc3)nc2C)cc1 [Example C-32] | at least 75% | at least 75% | at least 75% | at least 75% | at least 50%
14 | C#CCOc1ccc(C(=O)Nc2cn(-c3ccc(NC(=O)N=C4SCC(=O)N4c4cc(C)ccc4C(C)C)cc3)nc2C)cc1 [Example C-67] | at least 75% | at least 75% |  | at least 75% | at least 50%
15 | CCc1ccc(C(=O)Nc2cn(-c3ccc(NC(=O)N=C4SCC(=O)N4c4cc(C)ccc4C(C)C)cc3)nc2C)cc1 [Example C-80] |  | at least 75% | at least 75% | at least 75% | at least 50%
